Assay results reported in US20230094176A1, “COMPOUNDS AND METHODS FOR IMPROVING IMPAIRED ENDOGENOUS FIBRINOLYSIS USING HISTONE DEACETYLASE INHIBITORS” (Cereno Scientific AB, priority 2011, published 2023).
Where two headings read alike, the source gives them in different places.

Columns and labels:
[1] = tested on: TNF-a suppressed t-PA mRNA in HUVECs; assay: TNF-alpha suppression of t-PA mRNA in HUVEC: anti-inflammatory substances versus Givinostat; assay type: cell-based, human; details: HUVEC, TNF-a 1 h then substance; ASA 1 mM, IBU 1 mM
Procedure: HUVECs were treated with TNF-alpha (TNF-a) for 1 h and then optimal concentrations of the anti.inflammatory substances acetylsalicylic acid (ASA, 1 mM) and ibuprofen (IBU, 1 mM) was added. Givinostat was also added to the cells for comparison. Cells were harvested and t-PA mRNA levels analysed according to example 1.

[2] = cited from earlier work; for Cmax / Cmax (ng/ml): maximum plasma concentration when the MTD is administered to humans
t-PA mRNA in HUVECs = assay: C100: dose giving a 100% increase of t-PA mRNA in HUVEC (24 h); assay type: cell-based, human
Procedure: HUVECs are treated with different concentrations of first generation hydroxamates (TSA), second generation hydroxamates (Givinostat, Vorinostat, Belinostat, Panobinostat, SB939, PCI24781), benzamides (Mocetinostat, Entinostat) or short chain fatty acids (SCFA, Butyrate, Phenylbutyrate) for 24 h and t-PA mRNA was measured. The doses giving a 100% increase of t-PA mRNA (C100) was determined and compared to the maximum plasma concentration (Cmax) achieved when the maximum tolerated dose (MTD) of each substance is administered to humans, by dividing the C100 with the Cmax. […] In the table below the values for MTD and Cmax are from the following references (mentioned in the same order as in the table): Steele, N. L. et al Cancer Chemother Pharmacol 67(6):1273-9 (2011), Kelly, K. K. et al J Clin Oncol 23:3923-3931 (2005), Furlan, A. et al Mol Med 17(5-6) 353-362 (2011), Fukutomi, A. et al Invest New Drugs 2011 Apr. 12, Yong, W. P. et al Ann Oncol 22(11) 2516-22 (2011), Garcia-Manero, G. et al. Blood 112: 981-989 (2008), Ryan, Q. C. et al J Clin Oncol 23(17): 3912-3922 (2005), Edelman, M. J. et al Cancer Chemother Pharmacol 51: 439-444, http://www.drugs.com/pro/buphenyl.html *Butyrate was administered in the prodrug form tributyrin.

[3] = tested on: t-PA production in endothelial cells; details: Arts et al 1995; cited from earlier work
[4] = tested on: t-PA mRNA expression in human umbilical vein endothelial cells (HUVECs); assay: In vitro dose response: t-PA mRNA (and protein) expression in HUVEC after 24 h; assay type: cell-based
Procedure: Human umbilical vein endothelial cells (HUVECs) were prepared by collagenase treatment of fresh umbilical cords (Jaffe, E. A., et al. J Clin Invest 52, 2745-2756 (1973)) obtained from the maternity ward of the Sahlgrenska University hospital, Gotheburg, Sweden. Cells were cultured in EGM-2 medium (Lonza, Basel, Switzerland) and all experiments were performed in passage 1 of subcultivation. Confluent HUVECs were exposed to 10 nM-10 μM of Vorinostat (Selleck Chemicals, Houston, Tex., USA) in complete medium for 24 h. After 24 h, cells and conditioned media were harvested.
Total RNA was prepared using RNeasy Mini RNA kit (Qiagen, Hilden, Germany) and genomic DNA was removed using RNase-free DNase I set (Qiagen). Levels of t-PA mRNA were analyzed with real-time RT-PCR, performed on an Applied Biosystems 7500 Fast Real-Time PCR System using cDNA and Taqman reagents obtained from Applied Biosystems (Foster City, Calif., USA). Hypoxanthine phosphoribosyl transferase (HPRT, Assay number Hs99999909_m1, Applied Biosystems) was used as endogenous internal standard.
Endothelial cells in culture are known to constitutively secrete the majority of synthesized t-PA making conditioned media a suitable source for quantification of t-PA protein. Conditioned medium from cell cultures was collected, centrifuged (10 000×g, 10 min, 4° C.) to remove cell debris, transferred to fresh tubes and stored at −70° C. Concentrations of t-PA antigen in conditioned media were determined using the commercially available TriniLize t-PA antigen ELISA (Trinity Biotech, Bray, Ireland) according to manufacturer's protocol.

Compound: CC(C)Cc1ccc(C(C)C(=O)O)cc1 (centres unmarked) [ibuprofen]
- effect on TNF-a mediated suppression of t-PA expression [1]: unable to reverse

Compound: Phenylbutyrate
- MTD ([2]; humans, literature): 5 g
- Cmax ([2]; butyrate as prodrug tributyrin): 1100 µM
- Cmax (ng/ml) [2]: 218 000 ng/ml
- C100 tPA (μM) (t-PA mRNA in HUVECs): 1300 µM

Compound: CCCC(=O)O [Butyrate]
- MTD ([2]; humans, literature, butyrate administered in the prodrug form tributyrin): 200 mg/kg t.i.d
- Cmax ([2]; butyrate as prodrug tributyrin): 100 µM
- C100 tPA (μM) (t-PA mRNA in HUVECs): 100 µM

Compound: CC(C)Cc1ccc(C(C)C(=O)O)cc1 (centres unmarked) [IBU, ibuprofen]
- effect on TNF-a mediated suppression of t-PA expression [1]: not counteracted

Compound: CC(/C=C/C(=O)NO)=C\[C@@H](C)C(=O)c1ccc(N(C)C)cc1 [Trichostatin A, trichostatin A]
- t-PA production in endothelial cells [3]: increased

Compound: Nc1ccccc1NC(=O)c1ccc(CNC(=O)OCc2cccnc2)cc1 [Entinostat]
- Cmax [2]: 0.12 µM
- Cmax (ng/ml) [2]: 45 ng/mL
- C100 tPA (t-PA mRNA in HUVECs): 0.3 µM

Compound: CC(=O)Oc1ccccc1C(=O)O [ASA, acetylsalicylic acid]
- effect on TNF-a mediated suppression of t-PA expression [1]: not counteracted

Compound: CCCCc1nc2cc(/C=C/C(=O)NO)ccc2n1CCN(CC)CC [SB939, (2E)-3-{2-butyl-1-[2-(diethylamino)ethyl]-1H-benzimidazol-5-yl}-N-hydroxyacrylamide]
- MTD ([2]; humans, literature): 0.08 g
- Cmax [2]: 1.1 µM
- Cmax (ng/ml) [2]: ~400 ng/mL
- MTD ([2]; once daily, oncology treatment or trials): 60 mg once daily
- C100 tPA (t-PA mRNA in HUVECs): 0.05 µM
- concentration at which a significant increase of t-PA mRNA levels was seen [4]: 30 nM
- concentration of maximal effect on t-PA expression [4]: around 1 μM
- increase of t-PA expression at maximal effect [4]: approximately 10 times

Compound: CC(=O)Oc1ccccc1C(=O)O [aspirin]
- effect on TNF-a mediated suppression of t-PA expression [1]: unable to reverse
